Measurements as given in PubChem BioAssay AID330 (DTP/NCI, 2004).
Several values for one entry are separate records, joined by “and”; a condition that tells them apart may be missing. Identical values can stand only once. Toxic doses and inconclusive results are not listed.

Tested on: P388 leukemia ip, CD2F1 mice, survival T/C
Experiment: NCI In Vivo Anticancer Drug Screen. Data for tumor model P388 Leukemia (intraperitoneal) in CD2F1 (CDF1) mice
Settings: endpoint: median survival time, higher = longer survival
Summary of the method: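 Mice carrying the transplanted tumor received test compound or vehicle. Survival was recorded in each group, and the value is the treated-group measurement divided by that of the vehicle-treated control group.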

[1] = dose: 12.5 mg/kg/injection, schedule: Q01DX005 (ip), vehicle: saline
[2] = dose: 25.0 mg/kg/injection, schedule: Q01DX005 (ip), vehicle: saline
[3] = dose: 50.0 mg/kg/injection, schedule: Q01DX005 (ip), vehicle: saline

Compound: CC(/C=C/c1ccc(O)cc1)=N\NC(N)=O
- T/C (dose: 30.0 mg/kg/injection, schedule: Q01DX005 (ip), vehicle: Klucel (hydroxypropylcellulose) (HPC)): 103 % of control
- T/C (dose: 60.0 mg/kg/injection, schedule: Q01DX005 (ip), vehicle: Klucel (hydroxypropylcellulose) (HPC)): 99 % of control
- T/C (dose: 120.0 mg/kg/injection, schedule: Q01DX005 (ip), vehicle: Klucel (hydroxypropylcellulose) (HPC)): 104 % of control
- T/C (dose: 240.0 mg/kg/injection, schedule: Q01DX005 (ip), vehicle: Klucel (hydroxypropylcellulose) (HPC)): 101 % of control

Compound: C[N+]1(C[Si](C)(C)c2ccccc2)CCCCC1
- T/C [1]: 104 % of control
- T/C [2]: 100 % of control
- T/C [3]: 101 % of control and 105 % of control

Compound: CC(=NCc1ccccc1)Nc1ccc(NC(=O)c2ccc(C(=O)Nc3ccc(NC(C)=NCc4ccccc4)cc3)cc2)cc1
- T/C (dose: 25.0 mg/kg/injection, schedule: Q01DX005 (ip), vehicle: Klucel (hydroxypropylcellulose) (HPC)): 98 % of control
- T/C (dose: 50.0 mg/kg/injection, schedule: Q01DX005 (ip), vehicle: Klucel (hydroxypropylcellulose) (HPC)): 95 % of control
- T/C (dose: 100.0 mg/kg/injection, schedule: Q01DX005 (ip), vehicle: Klucel (hydroxypropylcellulose) (HPC)): 94 % of control
- T/C (dose: 200.0 mg/kg/injection, schedule: Q01DX005 (ip), vehicle: Klucel (hydroxypropylcellulose) (HPC)): 99 % of control

Compound: CCOC(=O)C1CC1C1=C(C)c2cc3[n-]c(cc4nc(cc5[n-]c(cc1n2)c(C)c5CCC(=O)OC)C(CCC(=O)OC)=C4C)c(C)c3C1CC1C(=O)OCC.[Zn+2] (stereo unspecified)
- T/C (dose: 50.0 mg/kg/injection, schedule: Q01DX005 (ip), vehicle: saline with Tween-80): 95 % of control
- T/C (dose: 100.0 mg/kg/injection, schedule: Q01DX005 (ip), vehicle: saline with Tween-80): 89 % of control
- T/C (dose: 200.0 mg/kg/injection, schedule: Q01DX005 (ip), vehicle: saline with Tween-80): 89 % of control

Compound: CCN(CC)CC(O)c1c(OC)ccc2ccccc12 (stereo unspecified)
- T/C [1]: 96 % of control
- T/C [2]: 96 % of control
- T/C [3]: 104 % of control and 97 % of control

Compound: CC(=O)O/C=C(/C=C/OC(C)=O)C(C/C=C(\C)C#CC=C(C)C)OC(C)=O (stereo unspecified)
- T/C (dose: 5.31 mg/kg/injection, schedule: Q01DX005 (ip), vehicle: saline with Tween-80): 98 % of control
- T/C (dose: 10.62 mg/kg/injection, schedule: Q01DX005 (ip), vehicle: saline with Tween-80): 103 % of control
- T/C (dose: 21.25 mg/kg/injection, schedule: Q01DX005 (ip), vehicle: saline with Tween-80): 103 % of control and 94 % of control
- T/C (dose: 42.5 mg/kg/injection, schedule: Q01DX005 (ip), vehicle: saline with Tween-80): 87 % of control

Compound: Nc1ccn(C2OC(CO)C(O)C2O)c(=O)n1 (stereo unspecified)
- T/C (dose: 2.0 mg/kg/injection, schedule: Q01DX009 (ip), vehicle: saline): 160 % of control
- T/C (dose: 10.0 mg/kg/injection, schedule: Q01DX005 (ip), vehicle: saline): 160 % of control
- T/C (dose: 60.0 mg/kg/injection, schedule: Q01DX005 (ip), vehicle: saline): 190 % of control
- T/C (dose: 100.0 mg/kg/injection, schedule: Q04DX002 (ip), vehicle: saline): 120 % of control
- T/C (dose: 128.0 mg/kg/injection, schedule: Q01DX009 (ip), vehicle: saline): 170 % of control and 250 % of control
- T/C (dose: 200.0 mg/kg/injection, schedule: Q01DX005 (ip), vehicle: saline): 200 % of control
- T/C (dose: 200.0 mg/kg/injection, schedule: Q01DX009 (ip), vehicle: saline): 100 % of control
- T/C (dose: 200.0 mg/kg/injection, schedule: Q04DX003 (ip), vehicle: saline): 100 % of control
- T/C (dose: 324.0 mg/kg/injection, schedule: Q04DX003 (ip), vehicle: saline): 190 % of control
- T/C (dose: 400.0 mg/kg/injection, schedule: Q01DX009 (ip), vehicle: saline with Tween-80): 100 % of control
- T/C (dose: 400.0 mg/kg/injection, schedule: Q01DX009 (ip), vehicle: saline): 99 % of control and 110 % of control
- T/C (dose: 500.0 mg/kg/injection, schedule: Q04DX003 (ip), vehicle: saline): 200 % of control
- T/C (dose: 512.0 mg/kg/injection, schedule: Q01DX009 (ip), vehicle: saline): 90 % of control
- T/C (dose: 800.0 mg/kg/injection, schedule: Q01DX009 (ip), vehicle: saline with Tween-80): 99 % of control
- T/C (dose: 800.0 mg/kg/injection, schedule: Q01DX009 (ip), vehicle: saline): 110 % of control and 91 % of control
- T/C (dose: 900.0 mg/kg/injection, schedule: Q04DX003 (ip), vehicle: saline): 210 % of control
- T/C (dose: 1200.0 mg/kg/injection, schedule: Q01DX009 (ip), vehicle: saline with Tween-80): 100 % of control
- T/C (dose: 1600.0 mg/kg/injection, schedule: Q01DX009 (ip), vehicle: saline): 91 % of control
- T/C (dose: 1600.0 mg/kg/injection, schedule: Q04DX002 (ip), vehicle: saline): 120 % of control
- T/C (dose: 2400.0 mg/kg/injection, schedule: Q01DX009 (ip), vehicle: saline with Tween-80): 90 % of control
